ChEMBL document CHEMBL1909294, “Translating clinical findings into knowledge in drug safety evaluation--drug induced liver injury prediction system (DILIps)” (PLoS Comput Biol, 2011)

Experiments:
Hepatotoxicity [1] = tested on: Hepatotoxicity;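 for HepSE bilirubinemia: bilirubinemia hepatic side effect score drawn from the DILIps training data, a prediction system for drug-induced liver injury; call rule not given here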;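 for HepSE cholecystitis: Cholecystitis-related hepatic side effect score drawn from the DILIps (drug-induced liver injury prediction) training data set; call rule not given here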;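 for HepSE cholelithiasis: hepatic side effect score for cholelithiasis, drawn from the DILIps training data for predicting drug-induced liver injury; call rule not given here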;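 for HepSE cirrhosis: cirrhosis hepatic side effect score taken from the DILIps (drug-induced liver injury prediction) training set; call rule not given here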;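 for HepSE elevated liver function tests: hepatic side effect score for raised liver function tests, as recorded in the DILIps training set used for predicting drug-induced liver injury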; for HepSE hepatic failure: call rule not given here;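 for HepSE hepatomegaly: hepatic side effect score for hepatomegaly, taken from the training set of the DILIps drug-induced liver injury prediction system; call rule not given here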
Hepatotoxicity [2] = tested on: Hepatotoxicity; remark: listed apart in the source;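 for HepSE bilirubinemia: bilirubinemia hepatic side effect score drawn from the DILIps training data, a prediction system for drug-induced liver injury; call rule not given here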;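 for HepSE cholecystitis: Cholecystitis-related hepatic side effect score drawn from the DILIps (drug-induced liver injury prediction) training data set; call rule not given here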;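 for HepSE cholelithiasis: hepatic side effect score for cholelithiasis, drawn from the DILIps training data for predicting drug-induced liver injury; call rule not given here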;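 for HepSE cirrhosis: cirrhosis hepatic side effect score taken from the DILIps (drug-induced liver injury prediction) training set; call rule not given here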;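 for HepSE elevated liver function tests: hepatic side effect score for raised liver function tests, as recorded in the DILIps training set used for predicting drug-induced liver injury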; for HepSE hepatic failure: call rule not given here
Hepatotoxicity [3] = tested on: Hepatotoxicity; remark: listed apart in the source;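 for HepSE bilirubinemia: bilirubinemia hepatic side effect score drawn from the DILIps training data, a prediction system for drug-induced liver injury; call rule not given here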;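 for HepSE cholecystitis: Cholecystitis-related hepatic side effect score drawn from the DILIps (drug-induced liver injury prediction) training data set; call rule not given here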;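 for HepSE cholelithiasis: hepatic side effect score for cholelithiasis, drawn from the DILIps training data for predicting drug-induced liver injury; call rule not given here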;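 for HepSE cirrhosis: cirrhosis hepatic side effect score taken from the DILIps (drug-induced liver injury prediction) training set; call rule not given here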;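 for HepSE elevated liver function tests: hepatic side effect score for raised liver function tests, as recorded in the DILIps training set used for predicting drug-induced liver injury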; for HepSE hepatic failure: call rule not given here
Hepatotoxicity [4] = tested on: Hepatotoxicity; remark: listed apart in the source;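 for HepSE bilirubinemia: bilirubinemia hepatic side effect score drawn from the DILIps training data, a prediction system for drug-induced liver injury; call rule not given here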;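 for HepSE cholecystitis: Cholecystitis-related hepatic side effect score drawn from the DILIps (drug-induced liver injury prediction) training data set; call rule not given here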;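 for HepSE cholelithiasis: hepatic side effect score for cholelithiasis, drawn from the DILIps training data for predicting drug-induced liver injury; call rule not given here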;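 for HepSE cirrhosis: cirrhosis hepatic side effect score taken from the DILIps (drug-induced liver injury prediction) training set; call rule not given here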;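 for HepSE elevated liver function tests: hepatic side effect score for raised liver function tests, as recorded in the DILIps training set used for predicting drug-induced liver injury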; for HepSE hepatic failure: call rule not given here
Hepatotoxicity [5] = tested on: Hepatotoxicity; remark: listed apart in the source; for HepSE hepatic failure: call rule not given here
Hepatotoxicity [6] = tested on: Hepatotoxicity; remark: listed apart in the source; for HepSE hepatic failure: call rule not given here
Hepatotoxicity [7] = tested on: Hepatotoxicity; remark: listed apart in the source
Hepatotoxicity [8] = tested on: Hepatotoxicity; remark: listed apart in the source
Hepatotoxicity [9] = tested on: Hepatotoxicity; remark: listed apart in the source
Hepatotoxicity [10] = tested on: Hepatotoxicity; remark: listed apart in the source
Hepatotoxicity [11] = tested on: Hepatotoxicity; remark: listed apart in the source
Hepatotoxicity [12] = tested on: Hepatotoxicity; remark: listed apart in the source
Hepatotoxicity [13] = tested on: Hepatotoxicity; remark: listed apart in the source
Hepatotoxicity [14] = tested on: Hepatotoxicity; remark: listed apart in the source

| Molecule | HepSE_bilirubinemia (Hepatotoxicity [1]) | HepSE_cholecystitis (Hepatotoxicity [2]) | HepSE_cholelithiasis (Hepatotoxicity [3]) | HepSE_cirrhosis (Hepatotoxicity [4]) | HepSE_elevated liver function tests (Hepatotoxicity [5]) | HepSE_hepatic failure (Hepatotoxicity [6]) | HepSE_hepatic necrosis (Hepatotoxicity [7]) | HepSE_hepatitis (Hepatotoxicity [8]) | HepSE_hepatomegaly (Hepatotoxicity [9]) | HepSE_jaundice (Hepatotoxicity [10]) | HepSE_liver disease (Hepatotoxicity [11]) | HepSE_liver fatty (Hepatotoxicity [12]) | HepSE_liver function tests abnormal (Hepatotoxicity [13]) | HepSE_Combined Scores (Hepatotoxicity [14]) |
| --- | --- | --- | --- | --- | --- | --- | --- | --- | --- | --- | --- | --- | --- | --- |
| CC(C)(N)Cc1ccccc1 [PHENTERMINE] | 0 | 0 | 0 | 0 | 0 | 0 | 0 | 0 | 0 | 0 | 0 | 0 | 0 | 0 |
| O=C(CO)[C@@H](O)[C@@H](O)COP(=O)(O)O | 0 | 0 | 0 | 0 | 0 | 0 | 0 | 0 | 0 | 0 | 0 | 0 | 0 | 0 |
| COc1ccc(C[C@@H]2c3cc(OC)c(OC)cc3CC[N@+]2(C)CCC(=O)OCCCCCOC(=O)CC[N@@+]2(C)CCc3cc(OC)c(OC)cc3[C@H]2Cc2ccc(OC)c(OC)c2)cc1OC | 0 | 0 | 0 | 0 | 0 | 0 | 0 | 0 | 0 | 0 | 0 | 0 | 0 | 0 |
| NCCS [CYSTEAMINE] | 0 | 0 | 0 | 0 | 0 | 0 | 0 | 0 | 0 | 0 | 0 | 0 | 0 | 0 |
| CN[C@H](CC(C)C)C(=O)N[C@H]1C(=O)N[C@@H](CC(N)=O)C(=O)N[C@H]2C(=O)N[C@H]3C(=O)N[C@H](C(=O)N[C@H](C(=O)O)c4cc(O)cc(O)c4-c4cc3ccc4O)[C@H](O)c3ccc(c(Cl)c3)Oc3cc2cc(c3O[C@@H]2O[C@H](CO)[C@@H](O)[C@H](O)[C@H]2O[C@H]2C[C@](C)(N)[C@H](O)[C@H](C)O2)Oc2ccc(cc2Cl)[C@H]1O [VANCOMYCIN] | 0 | 0 | 0 | 0 | 0 | 0 | 0 | 0 | 0 | 0 | 0 | 0 | 0 | 0 |
| CC[C@H]1OC(=O)[C@H](C)[C@@H](O[C@H]2C[C@@](C)(OC)[C@@H](O)[C@H](C)O2)[C@H](C)[C@@H](O[C@@H]2O[C@H](C)C[C@H](N(C)C)[C@H]2O)[C@](C)(O)C[C@@H](C)C(=O)[C@H](C)[C@@H](O)[C@]1(C)O [ERYTHROMYCIN] | 0 | 0 | 0 | 0 | 0 | 0 | 0 | 1 | 0 | 0 | 0 | 0 | 0 | 1 |
| C[C@@H]1[C@H](O)[C@@H](C)/C=C/C=C/C=C/C=C/C=C/C=C/C=C/[C@H](O[C@@H]2O[C@H](C)[C@@H](O)[C@H](N)[C@@H]2O)C[C@@H]2O[C@](O)(C[C@@H](O)C[C@@H](O)[C@H](O)CC[C@@H](O)C[C@@H](O)CC(=O)O[C@H]1C)C[C@H](O)[C@H]2C(=O)O [AMPHOTERICIN B] | 1 | 0 | 0 | 0 | 0 | 1 | 0 | 1 | 1 | 1 | 1 | 0 | 1 | 7 |
| COLESTIPOL | 0 | 1 | 1 | 0 | 0 | 0 | 0 | 0 | 0 | 0 | 0 | 0 | 0 | 2 |
| c1ccc2c(CC3=NCCN3)cccc2c1 [NAPHAZOLINE] | 0 | 0 | 0 | 0 | 0 | 0 | 0 | 0 | 0 | 0 | 0 | 0 | 0 | 0 |
